These results are taken from patent publication US20260234185A1, “ANTI-AGING COMPOSITION COMPRISING PEPTIDE COMPLEX AS ACTIVE INGREDIENT” (priority 2023, published 2026).

Where no end group is shown, it is not given here.

Experiment [1] deals with IκBα. Put plainly: Western blot of IκBα phosphorylation in adipocytes with palmitate-induced inflammation. In kind it is cell-based. Particulars: 3T3-L1 adipocytes, inflammation induced by 25 μM palmitate; 0.2, 2, 20 μg/mL; 24 hours; Western blot vs PA control (FIGS. 5a, 5b). As for the experimental part:
An experiment was performed to determine whether the peptide complex prepared in Preparation Example 1 induces a decrease in the phosphorylation of IκBα and a decrease in the expression level of the inflammatory cytokine TNFα in adipocytes under an inflammatory state induced by palmitate treatment.
When 3T3-L1 preadipocytes reached 80% confluence, they were seeded at 5×10^3 cells/well in a 96-well plate and used for the experiment. Two days after reaching confluence, the medium was replaced with a differentiation-inducing medium to induce the differentiation into adipocytes. Two days after the induction, the cells were cultured for 2 days in a medium containing 10% FBS and 10 μg/mL insulin, and then the medium was replaced with 10% FBS every days 2 until their differentiation into adipocytes. Once the differentiation was complete, the medium was replaced with a serum-free medium and cultured for 4 hours to induce starvation. After treating with 25 μM palmitate for 30 minutes, the peptide complexes were treated at concentrations of 0.2 μg/mL, 2 μg/mL, and 20 μg/mL and incubated for 24 hours. The control group (PA) was treated only with palmitate but not with the peptide complex. After dissolving by adding dissolution buffer thereto, the proteins obtained by centrifugation at 4° C. and 12,000 rpm for 30 minutes were quantified using a BCA kit. […]

Experiment [2] relates to AMPK. Put plainly: Western blot of AMPK phosphorylation in myocytes. In kind it is cell-based, mouse. Conditions: differentiated C2C12 myocytes; 0.2, 2, 20 μg/mL; 24 hours; Western blot (FIGS. 6a, 6b). As for the experimental part: An experiment was performed to determine whether the peptide complex increases the phosphorylation of AMPK and the expression of SIRT1 and FGF21 proteins in myocytes.
C2C12 cells, mouse-derived myoblasts, were cultured in DMEM medium containing 1% P/S and 2% BCS. When the cell confluency reached 70-80%, the cells were seeded in a 6-well culture plate. When the cell confluency in the 6-well culture plate reached 100%, the medium was replaced with differentiation medium (1% P/S, 2% horse serum), and thereafter, the differentiation medium (1% P/S, 2% horse serum) was replaced once every two days. Five days after the first replacement, the peptide complex was treated at concentrations of 0.2 μg/mL, 2 μg/mL, and 20 μg/mL and cultured for 24 hours. The group untreated with the peptide complex was used as the control. After dissolving by adding dissolution buffer thereto, the proteins obtained were centrifuged at 4° C. and 12,000 rpm for 30 minutes, and quantified using a BCA kit. The proteins were subjected to sodium dodecyl sulfate-polyacrylamide gel electrophoresis (SDS-PAGE) and then electrotransferred onto a membrane. The membrane with the proteins attached was blocked by treating it with 5% skim milk, and then the primary antibody was reacted overnight at 4° C. […]
For orientation: A western blot detects proteins with antibodies after separation by electrophoresis.

Experiment [3] relates to sirtuin 1 (SIRT1). Put plainly: Western blot of SIRT1 protein expression in adipocytes. Particulars: differentiated 3T3-L1 adipocytes; 0.2, 2, 20 μg/mL; 1 hour; Western blot (FIGS. 1a, 1b). In kind it is cell-based. As for the experimental part:
An experiment was performed to determine whether the peptide complex prepared in Preparation Example 1 using adipocytes increases the phosphorylation of AMP-activated protein kinase (AMPK), which is a longevity-related protein, and increases the expression levels of sirtuin 1 (SIRT1) and fibroblast growth factor 21 (FGF21) proteins in adipocytes.
When 3T3-L1 preadipocytes reached 80% confluence, they were seeded at 5×10^3 cells/well in a 96-well plate and used for the experiment. Two days after reaching confluence, the medium was replaced with a differentiation-inducing medium to induce the differentiation into adipocytes, and two days after the induction, the cells were cultured for 2 days in a medium containing 10% FBS and 10 μg/mL insulin, and then the medium was replaced with 10% FBS every 2 days until their differentiation into adipocytes. Once the differentiation was complete, the medium was replaced with a serum-free medium and cultured for 4 hours to induce starvation. The peptide complexes were treated at concentrations of 0.2 μg/mL, 2 μg/mL, and 20 μg/mL, incubated for 1 hour, dissolved by adding dissolution buffer thereto, and the proteins obtained by centrifugation at 4° C. and 12,000 rpm for 30 minutes were quantified using a BCA kit. […]

Regarding “peptide complex: prepared by mixing equal amounts of the peptide of SEQ ID NO: 1 (LKTRN) and the peptide of SEQ ID NO: 2 (KGSATGWMA) (also: mixture of two peptides)”, the “phosphorylation of IκBα” value in experiment [1] is given as “reduced”. Besides, the “phosphorylation of AMPK” value in experiment [2] is given as “increased”. Further, the “expression level of SIRT1 protein” value in experiment [3] is “increased”.
